PubChem BioAssay (NCI)
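Each compound was tested at five concentrations against cells in 96-well plates for 48 hours. GI50 is the concentration that inhibits growth by half. The concentration for full growth arrest is given as TGI.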

Legend:
Assay in all cases: DTP human tumour cell line panel, 48 h
[1] = system: IGROV1 ovarian
[2] = system: SNB-75 CNS
[3] = system: SW-620 colon
[4] = system: U251 CNS
[5] = system: SF-539 CNS
[6] = system: SK-MEL-5 melanoma
[7] = system: KM12 colon
[8] = system: SF-268 CNS
[9] = system: NCI-H226 lung
[10] = system: HCC-2998 colon

| SMILES | GI50 [1] [µM] | TGI [1] [µM] | GI50 [2] [µM] | TGI [2] [µM] | GI50 [3] [µM] | TGI [3] [µM] | GI50 [4] [µM] | TGI [4] [µM] | GI50 [5] [µM] | TGI [5] [µM] | GI50 [6] [µM] | TGI [6] [µM] | GI50 [7] [µM] | TGI [7] [µM] | GI50 [8] [µM] | TGI [8] [µM] | GI50 [9] [µM] | TGI [9] [µM] | GI50 [10] [µM] | TGI [10] [µM] |
| --- | --- | --- | --- | --- | --- | --- | --- | --- | --- | --- | --- | --- | --- | --- | --- | --- | --- | --- | --- | --- |
| COc1ccc(-c2c(C#N)cnc(N)c2-c2nc3cc(C)c(C)cc3[nH]2)cc1 | 16 | > 100 | 2.36 | 8.19 | 6.76 | > 100 | 3.65 | 12.7 | 11.5 | 41.9 | 8.78 | > 100 | 3.47 | > 100 | 9.8 | 65.7 | 16.4 | > 100 | 11 | > 100 |
| COc1ccc2oc3c(ccc[n+]3C)c(=O)c2c1 | – | > 100 | – | > 100 | – | > 100 | – | > 100 | – | > 100 | – | > 100 | – | > 100 | – | > 100 | – | > 100 | – | > 100 |
| CC(=O)Nc1nc(C)c(-c2cc3c(c(S(C)(=O)=O)c2)C(=O)N([C@@H](C)C2CC2)C3)s1 | 27.2 | > 100 | 3.11 | 35.6 | 54.5 | > 100 | 29.5 | > 100 | 24.2 | > 100 | 18.8 | 39.7 | 85 | > 100 | 20.4 | > 100 | 28.7 | > 100 | 46.7 | > 100 |
| CC1CC(c2ccc([N+](=O)[O-])cc2)=Nc2ccccc2S1=O (stereo not drawn) | – | 31.8 | – | 53.2 | – | 29.3 | – | 27.7 | – | 45 | – | 37.1 | – | 26.7 | – | 44.1 | – | 80.4 | – | 36.8 |
| O=c1ccc2nc3ccc(O)cc3oc-2c1 | – | > 100 | – | 22 | – | > 88.9 | – | > 100 | – | > 59.8 | – | 2.95 | – | > 62.7 | – | > 100 | – | > 100 | – | > 100 |
| Cc1ccc(C(=O)C(C)N)cc1C (stereo not drawn) | – | > 100 | – | > 100 | – | > 100 | – | > 100 | – | > 100 | – | > 100 | – | > 100 | – | > 100 | – | > 100 | – | > 100 |
| CC(=O)O[C@@H]1CN(S(=O)(=O)c2ccc(C)cc2)C[C@@H]1C1CCCCC1 | – | 38.6 | – | 44.4 | – | 41.3 | – | 37.2 | – | 0.609 | – | 45.8 | – | 29.8 | – | 52.5 | – | 34.6 | – | > 100 |
| NC(=O)N/N=C/c1ccccc1O | – | > 100 | – | > 100 | – | > 100 | – | > 100 | – | > 100 | – | > 100 | – | > 100 | – | > 100 | – | > 100 | – | > 100 |
| COc1cc2c(cc1O)N=C[C@@H]1CCC(O)N1C2=O (mixture of isomers) | – | 75.5 | – | 3.26 | – | 6.96 | – | 1.71 | – | 1.83 | – | 1.83 | – | 17.9 | – | 6.25 | – | 2.08 | – | 2.81 |
| CC(CNc1nc(Nc2ccc(Cl)c(Cl)c2)nc(C(Cl)(Cl)Cl)n1)N(C)C (stereo not drawn) | – | – | 1.53 | 4.7 | 1.6 | 2.95 | – | – | – | – | 1.63 | 2.98 | 1.7 | 3.14 | – | – | 1.8 | 3.51 | 1.58 | 3.04 |
| COc1ccc(/C=C/C(=O)/C=C(/C=C/c2ccc(OC)c(OC)c2OC)OB(F)F)c(OC)c1OC | 1.89 | > 100 | 4.84 | > 100 | 0.58 | 4.34 | 0.973 | 8.09 | 3.11 | > 100 | 1.77 | 3.91 | 2.09 | 5.08 | 2.93 | > 100 | – | – | 1.94 | 3.93 |
| Nc1ccc2c(c1)S(=O)(=O)c1cc(N)ccc1-2 | – | > 100 | – | – | – | > 100 | – | > 100 | – | > 100 | – | > 100 | – | > 100 | – | > 100 | – | > 100 | – | > 100 |
| CCc1ncc(C(C)(O)c2ccccc2)n1Cc1ccccc1 (stereo not drawn) | – | > 100 | – | > 100 | – | > 100 | – | > 100 | – | > 100 | – | 40.6 | – | > 100 | – | > 100 | – | > 100 | – | – |
